{
  "source": "patent US9011820B2",
  "about": "“Screening tool for antiviral agents” (Saint Louis University, priority 2007, dated 2015)",
  "key": {"[1]": {"tested_on": "Ad serotypes from Species A, B, C, D, E, and F in HEp-2 cells", "conditions": "cited from earlier work"}, "[2]": {"tested_on": "HaK tumors", "assay_type": "in vivo, hamsters", "conditions": "CP twice weekly", "protocol": "In an illustrative example, a tumor experiment in hamsters immunosuppressed with cyclophosphamide (CP) was conducted. Hamsters with very large (about 1.1 ml mean) established tumors (formed by the hamster renal cancer cell line named HaK) were treated with CP on day 1, then starting on day 4 the tumors were injected with VRX-007, Ad5, or buffer. CP was administered twice weekly throughout the study. […] Established large, about 1.1 ml, subcutaneous HaK tumors were injected intratumorally (6 injections, 1×10^10 PFU each) with VRX-007, wild-type Ad5, or vehicle (saline only). For each of these treatments, one group was immunosuppressed with CP and one group remained immunocompetent. Tumor volumes were measured with digital calipers twice per week. […] The tumors are from the 42 day time point."}, "[3]": {"tested_on": "VRX-007", "experiment": "Cidofovir inhibition of VRX-007 replication in A549 cells (crystal violet staining)", "assay_type": "cell-based, human adenovirus", "conditions": "10 or 0.1 PFU/cell, stained seven days post infection", "experimental": "A549 cells were mock-infected or infected with 10 or 0.1 plaque-forming units (PFU)/cell of VRX-007. Concomitantly, cidofovir was added to the medium at the indicated concentrations. The cells were stained with crystal violet dye at seven days post infection. Cidofovir has shown some efficacy in the rabbit and cotton rat models of ocular models of Ad5 infection."}, "[4]": {"tested_on": "Ad serotypes 1, 2, 5, and 8", "conditions": "cited from earlier work"}, "[5]": {"tested_on": "Ad5", "conditions": "rabbit; cited from earlier work"}, "[6]": {"tested_on": "Ad5", "conditions": "cotton rat; cited from earlier work"}, "[7]": {"tested_on": "Ad ocular infections", "conditions": "large multi-center trial, humans, cited from earlier work"}, "[8]": {"tested_on": "Ad", "conditions": "cited from earlier work"}, "[9]": {"conditions": "in vivo; cited from earlier work"}, "[10]": {"tested_on": "Ad5", "experiment": "HDP-CDV in Ad5-infected normal and CP-immunosuppressed Syrian hamsters", "assay_type": "in vivo", "conditions": "2.5 mg/kg oral gavage daily for 6 days, Days 3 and 6", "experimental": "FIGS. 12A-12D are graphical representations illustrating HDP-CDV decreasing adenovirus induced liver toxicity and viral load.\nSyrian hamsters (females, average weight 98 g) were immunosuppressed with twice weekly injections of cyclophosphamide (starting on Day −6; 140 mg/kg i.p. for the first dose, then 100 mg/kg). On Day 0, the animals were injected intravenously (into the jugular vein) with 1.9×10^12 vp/kg (ca. 3×10^10 PFU/animal) of Ad5 or AdCMVpA, and half of them were treated with HDPCDV (2.5 mg/kg via oral gavage daily for 6 days, starting on Day −1). On Days 3 and 6, hamsters were sacrificed and their sera were analyzed for transaminases (panel A=ALT; panel B=AST) and bilirubin (panel C). Infectious virus titers in the liver were determined, by TCID50 assays; the dashed line in the graph marks the threshold of quantifiability, horizontal lines represent group means, n-4, except for clinical chemistry for the Ad5 CP group on Day 6 (n=2); the error bars represent standard deviation."}, "[11]": {"tested_on": "Ad5", "experiment": "HDP-CDV in Ad5-infected immunosuppressed mice", "assay_type": "in vivo", "conditions": "daily 2.5 mg/kg oral gavage", "experimental": "Immunocompetent mice and mice immunosuppressed with CP were injected intravenously with 1.5×10^11 vp/kg of Ad5 or AdCMVpA, a replication defective adenovirus. Half of the animals in each group were treated via oral gavage with daily doses of 2.5 mg/kg of HDP-CDV, starting a day before virus injection. At the indicated times, mice were sacrificed and infectious virus titers in the liver were determined."}, "[12]": {"conditions": "prospective study, eight pediatric stem cell transplant patients"}},
  "note": "Like-named read-outs stand apart in the source and are kept apart here.",
  "data": [
    {"molecule": "NC(=O)c1ncn([C@@H]2O[C@H](CO)[C@@H](O)[C@H]2O)n1", "note": "[ribavirin]", "values": [
      {"measurement": "inhibition of Ad replication by species", "setting": "[1]", "value": "Only Species C was inhibited"}
    ]},
    {"molecule": "O=P1(N(CCCl)CCCl)NCCCO1", "note": "(stereo not shown) [CP, cyclophosphamide]", "values": [
      {"measurement": "growth of buffer-injected tumors", "setting": "[2]", "value": "did not affect growth"},
      {"measurement": "total white blood cell (WBC) count", "setting": "CP twice weekly", "value": "dropped to very low levels by day 12"},
      {"measurement": "hemoglobin level (average)", "setting": "CP-treated hamsters, end of experiment (42 days), 15.95 g/dl at the start", "value": 6.95, "unit": "g/dL"},
      {"measurement": "red blood cells (RBC)", "setting": "CP-treated hamsters, end of experiment, 8.39×10^6/mm^3 at the start", "value": "3.96×10^6 mm^3"}
    ]},
    {"molecule": "Nc1ccn(C[C@@H](CO)OCP(=O)(O)O)c(=O)n1", "note": "[cidofovir, (S)-9-[3-hydroxy-2-(phosphonomethyloxy)propyl] cytosine]", "values": [
      {"measurement": "inhibition of replication of VRX-007", "setting": "[3]", "value": "inhibits the replication"},
      {"measurement": "inhibition of Ad replication in cell culture", "setting": "[4]", "value": "potent, nontoxic inhibitor"},
      {"measurement": "inhibition of Ad replication by species", "setting": "[1]", "value": "inhibited replication in HEp-2 cells of serotypes from Species A, B, D, E, and F"},
      {"measurement": "efficacy in ocular model of Ad5 infection", "setting": "[5]", "value": "some efficacy"},
      {"measurement": "efficacy in ocular model of Ad5 infection", "setting": "[6]", "value": "some efficacy"},
      {"measurement": "efficacy against Ad ocular infections", "setting": "[7]", "value": "Significant efficacy"},
      {"measurement": "efficacy/toxicity ratio", "setting": "[7]; trial discontinued", "value": "narrow efficacy/toxicity ratio"},
      {"measurement": "toxicity of systemic use", "setting": "[8]; accumulation of the drug in renal proximal tubules", "value": "nephrotoxicity"},
      {"measurement": "efficacy against Ad-associated hemorrhagic cystitis and renal dysfunction", "setting": "[8]; bone marrow transplant patients", "value": "effective"},
      {"measurement": "resolution of Ad infection in case reports", "setting": "[8]; disseminated Ad in pediatric liver transplant patient, Ad7 in B cell lymphoma adult patient with meningoencephalitis", "value": "seemed to resolve"},
      {"measurement": "efficacy against Ad", "setting": "[8]; patients immunosuppressed because of stem cell and bone marrow transplants", "value": "some efficacy"},
      {"measurement": "dose-limiting nephrotoxicity", "setting": "[8]; [12]", "value": "without dose-limiting nephrotoxicity"},
      {"measurement": "suppression of Ad", "setting": "[8]; [12]", "value": "seemed to provide long term suppression of Ad"},
      {"measurement": "oral bioavailability", "setting": "[9]", "value": "poor oral bioavailability"}
    ]},
    {"molecule": "CCCCCCCCCCCCCCCCOCCCOP(=O)(O)CO[C@H](CO)Cn1ccc(N)nc1=O", "note": "[HDP-CDV, Hexadecyloxypropyl-cidofovir]", "values": [
      {"measurement": "adenoviral loads (infectious virus titers in the liver, TCID50)", "setting": "[10]", "value": "effectively and significantly reduces"},
      {"measurement": "liver toxicity (ALT, AST, bilirubin)", "setting": "[10]", "value": "effectively and significantly reduces liver toxicity"},
      {"measurement": "replication of Ad5 (infectious virus titers in the liver)", "setting": "[11]", "value": "suppressing the replication"}
    ]}
  ]
}
